This is an account of results in patent publication US10189826B2, “Heterocyclic compounds and methods of use” (Medivation Technologies LLC, priority 2015, dated 2019).

Read-outs that look alike come from different tables or passages of the source. A value given as a limit tells only on which side of the number the result lay.

Data set [1] in a line: Cytotoxicity assay (LDH release) in HepG2_LSSprom cells. The following applies: human, HepG2 LSSprom cells, LDH release; for IC50 at 24 h: 24 h treatment. Format: cell-based. How it is done:
(§1) HepG2_LSSprom cells (SwitchGear Genomics, cat# C711010L) were cultured in DMEM with 10% of fetal bovine serum (FBS), supplemented with Puromycin (1 μg/mL), 1% Penicillin/Streptomycin (Pen-Strep), 37° C., humidified, 95% air and 5% CO2. Culture media was refreshed every 2 or 3 days. Cells were used between passage number 6-12.
For cytotoxicity assays, cells were plated out at 20,000 cells/well in transparent 96 well plates in DMEM plus 10% FBS and 1% Pen-Strep without puromycin. After 1 day, cells were treated with Compound by diluting in culture medium without FBS to a final concentration of 0.625, 1.25, 2.5, 3.75, 5 and 10 μM. Compound was prepared by dilutions of 10 mM stock aliquots. As a negative control culture medium was used without FBS plus DMSO. As maximum LDH release control (Lysis control) a lysis buffer provided by the kit manufacturer was used. Treatments with Compound were maintained for 6 h, or 24 h, in cell culture medium without serum until the cytotoxicity assay was started.
The cytotoxicity assay was performed according to the manufacturer's instructions. As maximum LDH release control (Lysis control) 3 wells per plate were treated with 10 μL of lysis buffer 45 min before the treatment was over. Briefly, after the 6 h, or 24 h, of treatment, 50 μL of media from each well was transferred to a new 96-well plate. To the transferred media, 50 μL of reconstituted substrate mix was added. The plates were covered from light and incubated at RT for 10 min. Then, 50 μL of stop solution was added to each well. The plates were then read using a Synergy 4 (Biotek) equipment recording the absorbance at 490 nm.
(§2) Five independent experiments were carried out for both luciferase and cytotoxicity assay. In each experiment, three wells were use per condition and the results are represented as means±SEM.
For cytotoxicity assay, Lysis control was taken as 100%/o of LDH release. The vehicle values were taken as basal LDH release and were subtracted to all the treatments (including vehicle itself) having this value as 0% of LDH release. The LDH release for the treatments was calculated respect to the 100% of LDH release of Lysis control normalized against vehicle. All the negatives values were taken as 0% of cytotoxicity. The graphics were made using the Graph Prism ver. 6.05 software.

For data set [2], the system named is SREBP-2 transcriptional activity (SREBP2 cleavage) in HepG2_LSSprom cells. Briefly: Luciferase reporter driven by a SREBP-2 specific promoter in HepG2_LSSprom cells. Format: cell-based. Here is the method:
Dose response effects were measured of Compounds on the transcriptional activity of a Luciferase reporter driven by a SREBP-2 specific promoter in HepG2_LSSprom cells.
as §1
For luminescence assays, cells were plated out at 20,000 cells/well in white 96 well plates in DMEM plus 10% FBS and 1% Pen-Strep without puromycin. After 1 day, cells were treated with Compound by diluting the drug in culture medium without FBS to a final concentration of 0.625, 1.25, 2.5, 3.75, 5 and 10 μM. Drug was prepared by dilutions of 10 mM stock aliquots. As control was used culture medium without FBS plus DMSO. Treatments with Compound were maintained for 6 h, or 24 h, until the luciferase assay was carried out.
After 6 h of treatments with Compound, the luciferase assay was performed. Briefly, the assay solution (buffer+substrate) was prepare just prior to use. To each well 100 μL of assay solution was added. The 96-well plate was then gently mix for 2 min and incubated for 30 min at RT protected from light. The luminescence was read using a Synergy 4 (Biotek) equipment recording luminescence with sensibility set up at 150.
as §2
For luciferase assay, Vehicle (no treatment) was taken as 100% of luciferase activity. This value represents the SREBP-2 transcriptional activity for the vehicle condition and was taken as 100% of SREBP-2 cleaved. The percentage for each treatment was calculated normalizing against the vehicle control. The graphics were made using the GraphPad Prism ver. 6.05 software. Half of maximal inhibitory concentration (IC50) of the effect of Compound on SREBP was obtain by nonlinear fit regression of mean normalized values vs. Compound concentration using the log(inhibitor) vs. response−Variable slope (four parameters) tool.

Where [3] appears, read: 24 h, 24 h treatment, HepG2_LSSprom cells, read-out: SREBP2 Cleavage (IC50 μM) 24 h.
Where [4] appears, read: 6 h, 6 h treatment, HepG2_LSSprom cells, read-out: SREBP2 Cleavage (IC50 μM) 6 h.

As to `CN1CCc2cc(-c3csc(-c4ccnc(C(C)(C)C)c4)c3)ccc2C1=O` [Compound 26, 6-[5-(2-tert-butylpyridin-4-yl)thiophen-3-yl]-2-methyl-1,2,3,4-tetrahydroisoquinolin-1-one], the IC50 at 24 h in data set [1] is over 10 µM. For the same compound, the half-maximal inhibitory concentration (IC50) in data set [2] (setting [3]) was over 3 µM.
Take `Cc1sc(-c2ccnc(C(C)(C)C)c2)cc1-c1ccc(C(=O)Nc2ccccc2)cc1Cl` [Compound 67, 4-[5-(2-tert-butylpyridin-4-yl)-2-methylthiophen-3-yl]-3-chloro-N-phenyl benzamide]: in data set [1], the IC50 at 24 h was over 10 µM. The IC50 in data set [2] (24 h, read-out: SREBP2 Cleavage (IC50 μM) 24 h) was determined as 4.7 µM.
Turning to `CC1(O)CCN(C(=O)c2ccc(-c3cc(-c4ccnc(C(C)(C)C)c4)cs3)c(Cl)c2)CC1` [Compound 100, 1-{4-[4-(2-tert-butylpyridin-4-yl)thiophen-2-yl]-3-chlorobenzoyl}-4-methylpiperidin-4-ol], the IC50 at 24 h in data set [1] was over 10 µM. For the same compound, in data set [2] (setting [3]), the IC50 stood at 0.74 µM.
`CC(C)(C)OC(=O)NC1CCCN(C(=O)c2ccc(-c3csc(-c4ccnc(N5CCOCC5)c4)c3)c(Cl)c2)C1` (centres unmarked) [Compound 64, tert-butyl N-[1-(3-chloro-4-{5-[2-(morpholin-4-yl)pyridin-4-yl]thiophen-3-yl}benzoyl)piperidin-3-yl]carbamate]: the half-maximal inhibitory concentration (IC50) at 24 h in data set [1] was over 10 µM. The 50% inhibitory concentration (IC50) in data set [2] (setting [3]) came to 0.4 µM.
With `CC(C)(C)c1cc(-c2cc(-c3ccc(C(=O)N4CCC(F)(F)CC4)cc3Cl)cs2)ccn1` [Compound 13, 2-tert-butyl-4-{4-[2-chloro-4-(4,4-difluoropiperidine-1-carbonyl)phenyl]thiophen-2-yl}pyridine], the concentration for half-maximal inhibition (IC50) at 6 h in data set [1] (6 h treatment) was over 10 µM. Besides, the figures for the IC50 in data set [2] (setting [4]) and in data set [2] (setting [3]) were over 10 µM and 0.54 µM, respectively.
For the compound `CC(C)CCn1nccc1-c1csc(-c2ccc(C(=O)N3CCCC(O)C3)cc2Cl)c1` (centres unmarked) [Compound 104, [3-chloro-4-[4-(2-isopentylpyrazol-3-yl)-2-thienyl]phenyl]-(3-hydroxy-1-piperidyl)methanone], the half-inhibitory concentration (IC50) at 24 h in data set [1] is over 10 µM. For the same compound, in data set [2] (setting [3]), the IC50 came out at 0.13 µM.
As for `CC(C)N1CCc2cc(-c3csc(-c4ccnc(C(C)(C)C)c4)c3)c(Cl)cc2C1=O` [Compound 52, 6-[5-(2-tert-butylpyridin-4-yl)thiophen-3-yl]-7-chloro-2-(propan-2-yl)-1,2,3,4-tetrahydroisoquinolin-1-one], in data set [1], the IC50 at 24 h is over 10 µM. In addition, the IC50 in data set [2] (setting [3]) worked out at 1.7 µM.
With `Cc1sc(-c2ccc(C(=O)N3CCNC(=O)C3)cc2Cl)cc1-c1ccnc(C(C)(C)C)c1` [Compound 77, 4-{4-[4-(2-tert-butylpyridin-4-yl)-5-methylthiophen-2-yl]-3-chlorobenzoyl}piperazin-2-one], the half-inhibitory concentration (IC50) at 24 h in data set [1] is over 10 µM. Also, in data set [2] (setting [3]), the concentration for half-maximal inhibition (IC50) is 2.3 µM.
For `CN(C(=O)c1ccc(-c2csc(-c3ccnc(C(C)(C)C)c3)c2)c(Cl)c1)c1ncco1` [Compound 60, 4-[5-(2-tert-butylpyridin-4-yl)thiophen-3-yl]-3-chloro-N-methyl-N-(1,3-oxazol-2-yl)benzamide], the half-inhibitory concentration (IC50) at 24 h in data set [1] is over 10 µM. Further, in data set [2] (setting [3]), the concentration for half-maximal inhibition (IC50) is 3.5 µM.
On to `CC(C)N1CCc2cc(-c3csc(-c4ccnc(C(C)(C)C)c4)c3)ccc2C1=O` [Compound 35, 6-[5-(2-tert-butylpyridin-4-yl)thiophen-3-yl]-2-(propan-2-yl)-1,2,3,4-tetrahydroisoquinolin-1-one], for which the half-inhibitory concentration (IC50) at 24 h in data set [1] is over 10 µM. Besides, the 50% inhibitory concentration (IC50) in data set [2] (setting [3]) amounted to 2.4 µM.
For `Cc1sc(-c2ccc(C(=O)N3CCC[C@@H](N)C3)cc2Cl)cc1-c1ccnc(C(C)(C)C)c1` [Compound 87b, (3R)-1-{4-[4-(2-tert-butylpyridin-4-yl)-5-methylthiophen-2-yl]-3-chlorobenzoyl}piperidin-3-amine], in that order: over 10 µM and over 10 µM.
With `CC(C)(C)c1cc(-c2cc(-c3ccc(C(=O)NC4CCC4)cc3Cl)cs2)ccn1` [Compound 8, 4-[5-(2-tert-butylpyridin-4-yl)thiophen-3-yl]-3-chloro-N-cyclobutylbenzamide], the IC50 at 24 h in data set [1] was over 3 µM. The IC50 in data set [2] (setting [3]) was over 3 µM.
On to `CC(C)(C)c1cc(-c2csc(-c3ccc(C(=O)N4CCCC(N5CCNC5=O)C4)cc3Cl)c2)ccn1` (centres unmarked) [Compound 94, 1-[1-{4-[4-(2-tert-butylpyridin-4-yl)thiophen-2-yl]-3-chlorobenzoyl}piperidin-3-yl]imidazolidin-2-one], for which the half-maximal inhibitory concentration (IC50) at 24 h in data set [1] was over 10 µM. The concentration for half-maximal inhibition (IC50) in data set [2] (setting [3]) is 0.52 µM.
As to `CC(C)(C)c1cc(-c2cc(-c3ccc(C(=O)N4CCOCC4)cc3Cl)cs2)ccn1` [Compound 22, 4-{4-[5-(2-tert-butylpyridin-4-yl)thiophen-3-yl]-3-chlorobenzoyl}morpholine], the 50% inhibitory concentration (IC50) at 24 h in data set [1] is over 3 µM. Besides, the IC50 in data set [2] (setting [3]) came out at 0.82 µM.
Regarding `CC(C)(C)c1cc(-c2csc(-c3ccc(C(=O)N4CCNC(=O)C4)cc3Cl)c2)ccn1` [Compound 93, 4-{4-[4-(2-tert-butylpyridin-4-yl)thiophen-2-yl]-3-chlorobenzoyl}piperazin-2-one], the IC50 at 24 h in data set [1] is over 10 µM. For the same compound, the IC50 in data set [2] (setting [3]) stood at 0.41 µM.
In the case of `CC1(N)CCCN(C(=O)c2ccc(-c3cc(-c4ccnc(C(C)(C)C)c4)cs3)c(Cl)c2)C1` (centres unmarked) [Compound 95, 1-{4-[4-(2-tert-butylpyridin-4-yl)thiophen-2-yl]-3-chlorobenzoyl}-3-methylpiperidin-3-amine], the IC50 at 24 h in data set [1] was over 10 µM. Moreover, in data set [2] (setting [3]), the IC50 was found to be 0.42 µM.
On to `CC(O)CNC(=O)c1ccc(-c2csc(-c3ccnc(N4CCCCC4)c3)n2)c(Cl)c1` (centres unmarked) [Compound 18, 3-chloro-N-(2-hydroxypropyl)-4-{2-[2-(piperidin-1-yl)pyridin-4-yl]-1,3-thiazol-4-yl}benzamide], for which the IC50 in data set [2] (setting [4]) and in data set [2] (setting [3]) was over 3 µM in each case.
Turning to `CC(C)(C)c1cc(-c2cc(-c3ccc(C(=O)NC4CC4)cc3Cl)cs2)ccn1` [Compound 14, 4-[5-(2-tert-butylpyridin-4-yl)thiophen-3-yl]-3-chloro-N-cyclopropylbenzamide], the IC50 in data set [2] (setting [4]) was 3.17 µM.
Consider `CC(C)(C)c1cc(-c2cc(-c3ccc(C(=O)N4CCS(=O)(=O)CC4)cc3Cl)cs2)ccn1` [Compound 20, 4-{4-[5-(2-tert-butylpyridin-4-yl)thiophen-3-yl]-3-chlorobenzoyl}-1λ^6,4-thiomorpholine-1,1-dione], for which the IC50 in data set [2] (setting [3]) is over 3 µM.
With `CC(C)(C)NC(=O)c1ccc(-c2csc(-c3ccnc(C(C)(C)C)c3)c2)c(Cl)c1` [Compound 15, N-tert-butyl-4-[5-(2-tert-butylpyridin-4-yl)thiophen-3-yl]-3-chlorobenzamide], in data set [2] (setting [4]), the IC50 was over 5 µM.
In the case of `O=C(c1ccc(-c2csc(-c3ccnc(N4CCCCC4)c3)n2)c(Cl)c1)N1CCOCC1` [Compound 17, 4-(3-chloro-4-{2-[2-(piperidin-1-yl)pyridin-4-yl]-1,3-thiazol-4-yl}benzoyl) morpholine], the IC50 in data set [2] (setting [4]) and in data set [2] (setting [3]) was over 3 µM each time.
In the case of `CN1CCN(C(=O)c2ccc(-c3csc(-c4ccnc(C(C)(C)C)c4)c3)c(Cl)c2)CC1` [Compound 10, 1-{4-[5-(2-tert-butylpyridin-4-yl)thiophen-3-yl]-3-chlorobenzoyl}-4-methylpiperazine], the IC50 in data set [2] (setting [3]) is over 3 µM.
